Experimental data from patent US8338431B2, “Phosphodiesterase inhibitors” (Leo Pharma A/S, priority 2007, dated 2012).

Key:
[1] = target: Human recombinant PDE4 (Genbank accession no NM—006203) (Homo sapiens, UniProt Q08499); assay: PDE4 Assay (SPA, cleavage of cAMP); format: biochemical; settings: human recombinant PDE4, 1 hour incubation, cAMP 1×10^-5M, test compound up to 10 μM; read-out: IC50 (PDE4)
Experimental: Human recombinant PDE4 (Genbank accession no NM_006203) was incubated for 1 hour, with the test compound at concentrations up to 10 μM, with cAMP (1×10^-5M), and with a low amount (0.021 MBq) of radioactively labelled cAMP. At the end of the incubation, the cleavage of the substrate was evaluated by the binding of the AMP product to SPA beads, which generate […] when bound to the radioactive tracer. The AMP product inhibited the binding of the radioactive tracer to the beads, and the luminescent signal was competed. The results were calculated as the molar concentrations resulting in 50% inhibition of the substrate cleavage compared to controls samples, and are expressed as IC50 (M).

[2] = test system: TNF-α release from human peripheral blood mononuclear cells (PBMC); assay: TNF-α Release in LPS stimulated PBMC; format: cell-based; settings: 30 minutes pre-incubation, stimulated 18 hours with lipopolysaccharide, TNF-α in supernatant by enzyme immunoassay
Experimental: Human peripheral blood mononuclear cells (PBMC) were isolated from buffy coats. The blood is mixed with saline at a ratio of 1:1, and the PBMC were isolated using Lymphoprep Tubes™ (Nycomed, Norway). The PBMC were suspended in RPMI1640 with 2% foetal calf serum (FCS), pen/strep and 2 mM L-glutamine at a concentration of […]. The cells were pre-incubated for 30 minutes with the test compounds in 96 well tissue culture plates and stimulated for 18 hours with lipopolysaccharide […] (Sigma). The level of TNF-α was measured in the culture supernatant by enzyme immunoassays using primary and secondary biotinylated antibodies from R&D systems. Results are expressed as IC50 values calculated from inhibition curves using as positive controls the secretion in LPS stimulated wells and as negative controls the secretion in unstimulated cells.

Chain of Human recombinant PDE4 (Genbank accession no NM—006203) (Q08499 1-673 isoform Q08499-2): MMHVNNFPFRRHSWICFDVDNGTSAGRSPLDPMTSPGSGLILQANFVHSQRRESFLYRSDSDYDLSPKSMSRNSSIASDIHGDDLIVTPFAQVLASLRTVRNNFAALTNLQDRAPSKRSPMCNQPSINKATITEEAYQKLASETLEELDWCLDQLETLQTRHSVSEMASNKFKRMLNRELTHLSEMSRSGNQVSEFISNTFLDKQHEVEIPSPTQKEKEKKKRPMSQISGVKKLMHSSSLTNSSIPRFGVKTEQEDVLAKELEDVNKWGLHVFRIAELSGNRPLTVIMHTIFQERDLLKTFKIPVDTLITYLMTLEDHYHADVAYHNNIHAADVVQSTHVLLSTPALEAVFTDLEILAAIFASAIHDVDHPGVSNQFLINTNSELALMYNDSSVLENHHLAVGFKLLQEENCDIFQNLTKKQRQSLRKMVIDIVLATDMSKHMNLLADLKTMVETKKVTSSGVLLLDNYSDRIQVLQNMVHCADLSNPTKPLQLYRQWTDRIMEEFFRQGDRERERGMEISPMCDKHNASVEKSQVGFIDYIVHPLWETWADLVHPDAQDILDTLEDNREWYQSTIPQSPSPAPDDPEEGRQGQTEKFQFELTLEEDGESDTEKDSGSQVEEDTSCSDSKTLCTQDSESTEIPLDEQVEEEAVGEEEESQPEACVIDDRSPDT

SMILES | IC50 [1] [nM] | IC50 [2] [nM]
COc1ccc(C(=O)Cc2c(Cl)cncc2Cl)c2c1OCC1(CCOCC1)CO2 [Compound 127, 2-(3,5-Dichloropyridin-4-yl)-1-{9-methoxy-spiro[2H-1,5-benzodioxepin-3(4H),4′-tetrahydropyran]-6-yl}ethanone] | 22 | 27
COc1ccc(C(=O)Cc2c(Cl)c[n+]([O-])cc2Cl)c2c1OCC1(CCOCC1)CO2 [Compound 128, 2-(3,5-Dichloro-1-oxido-pyridin-4-yl)-1-{9-methoxy-spiro[2H-1,5-benzodioxepin-3(4H),4′-tetrahydropyran]-6-yl}ethanone] | 11 | 9
COc1ccc(C(=O)Cc2c(Cl)cncc2Cl)c2c1OCC1(COCOC1)CO2 [Compound 130, 2-(3,5-Dichloropyridin-4-yl)-1-{9-methoxy-spiro[2H-1,5-benzodioxepin-3(4H),5′-[1,3]dioxane]-6-yl}ethanone] | 40 | 50
COc1ccc(C(=O)Cc2c(Cl)c[n+]([O-])cc2Cl)c2c1OCC1(COCOC1)CO2 [Compound 131, 2-(3,5-Dichloro-1-oxido-pyridine-4-yl)-1-{9-methoxy-spiro[2H-1,5-benzodioxepin-3(4H),5′-[1,3]dioxane]-6-yl}ethanone] | 43 | 16
COc1ccc(C(=O)Cc2c(Cl)cncc2Cl)c2c1OCC1(CO2)CSCSC1 [Compound 132, 2-(3,5-Dichloropyridin-4-yl)-1-{9-methoxy-spiro[2H-1,5-benzodioxepin-3(4H),5′-[1,3]dithiane]-6-yl}ethanone] | 26 | 29
